Measured values published in publication PMC4865847, “Putative histidine kinase inhibitors with antibacterial effect against multi-drug resistant clinical isolates identified by in vitro and in silico screens” (Scientific Reports, 2016).
In brackets after ≈: the same amount, converted by molar mass. Like-named read-outs stand apart in the source and are kept apart here.

How the values were obtained:
S. aureus PhoR (PhoR^S) [1] = molecular target: T1, S. aureus PhoR (PhoR^S) (Staphylococcus aureus, UniProt Q2FXN7); experiment: In vitro autophosphorylation kinase assay with γ-32P-ATP, PhoR^S; type: biochemical; details: for inhibition at 2000 µM: read-out: inhibition of PhoR^S autophosphorylation
T1 sequence (Q2FXN7 entry or part of it): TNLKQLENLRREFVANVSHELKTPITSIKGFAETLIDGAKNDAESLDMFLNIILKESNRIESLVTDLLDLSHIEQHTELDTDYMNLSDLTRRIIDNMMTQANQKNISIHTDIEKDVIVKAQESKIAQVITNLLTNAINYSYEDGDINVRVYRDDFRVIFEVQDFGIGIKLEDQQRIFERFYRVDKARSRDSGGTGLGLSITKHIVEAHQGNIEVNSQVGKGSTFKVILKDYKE
Method in brief: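 ≈4 μM HK incubated with up to 20 mM fragment in 50 mM Tris HCl pH 8.5, 50 mM KCl, 5 mM MgCl2, 0.5 mM EDTA, 0.1 mM DTT; started with γ-32P-ATP (0.03–0.06 μM ATP final). Quenched with SDS sample buffer/EDTA, run on SDS-PAGE unheated, phosphoprotein quantified by phosphor-imaging.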

E. coli PhoR (PhoR^E) [2] = molecular target: T2, E. coli PhoR (PhoR^E) (Escherichia coli, UniProt P08400); experiment: In vitro autophosphorylation kinase assay with γ-32P-ATP, PhoR^E; type: biochemical; details: for inhibition at 2000 µM: 2 mM, 30 sec, compared to negative control; for IC50: autophosphorylation, one time point (30 sec), 10% DMSO, read-out: IC50 PhoR^E
T2 construct: The catalytic portion (DHp and CA domain) of E. coli PhoR (PhoR^E); made in house; host or cells: E. coli RIL
T2 sequence (P08400 210-425): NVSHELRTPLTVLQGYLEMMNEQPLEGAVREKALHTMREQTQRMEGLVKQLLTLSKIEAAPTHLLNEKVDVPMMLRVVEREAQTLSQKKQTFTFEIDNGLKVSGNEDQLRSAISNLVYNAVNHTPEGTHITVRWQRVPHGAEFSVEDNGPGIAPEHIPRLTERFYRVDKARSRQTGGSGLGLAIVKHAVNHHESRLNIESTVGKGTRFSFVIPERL
Method in brief: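 Histidine kinase (0.12 mg/ml, ≈4 μM) incubated with up to 20 mM fragment in 50 mM Tris HCl pH 8.5, 50 mM KCl, 5 mM MgCl2, 0.5 mM EDTA, 0.1 mM DTT; started with 0.1 μCi/μl γ-32P-ATP (0.03–0.06 μM ATP final). Phosphoprotein quantified by SDS-PAGE and phosphor-imaging, curve-fitted; DMSO controls.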

Staphylococcus aureus = experiment: Antibacterial susceptibility testing (MIC/MBC), S. aureus; type: cell-based; details: for MIC / MBC: Staphylococcus aureus; for MBC: read-out: MBC S. aureus DSM 20231
Experimental: (§1) Minimal inhibitory concentrations (MICs) were determined following a standard double-dilution method. […] For S. pneumoniae MICs were determined by adapting the standard double-dilution method to anaerobic conditions and of this microorganism (use of Todd Hewitt Yeast extract with 200 U/mL of catalase and continuous monitoring of growth).

Escherichia coli = experiment: Antibacterial susceptibility testing (MIC/MBC), E. coli; type: cell-based; details: Escherichia coli
Experimental: as §1

Streptococcus suis = experiment: Antibacterial susceptibility testing (MIC), S. suis; type: cell-based; details: Streptococcus suis, read-out: MIC Streptococcus suis 3881/S10, strain 3881/S10
Experimental: (§2) Bacterial strains used in this study for antibacterial susceptibility testing (Table S5) were propagated using standard microbiological procedures. Minimal inhibitory concentrations (MICs) were determined following a standard double-dilution method. MICs were recorded as the lowest concentration of the compound where no visible growth was observed. After plating the dilutions around the MIC or growing them in fresh MH media, minimal bactericidal concentration (MBC) was recorded as the lowest concentration of the compound at which no colonies were formed or no growth was observed, respectively. For S. pneumoniae MICs were determined by adapting the standard double-dilution method to anaerobic conditions and of this microorganism (use of Todd Hewitt Yeast extract with 200 U/mL of catalase and continuous monitoring of growth).

Streptococcus pneumoniae = experiment: Antibacterial susceptibility testing (MIC), S. pneumoniae; type: cell-based; details: strain 49619
Experimental: as §2

Acinetobacter baumannii = experiment: Antibacterial susceptibility testing (MIC), A. baumannii; type: cell-based
Experimental: as §2

[3] = tested on: Stenotrophomonas maltophilia; experiment: Antibacterial susceptibility testing (MIC), S. maltophilia; type: cell-based
Experimental: as §2

Pseudomonas aeruginosa = experiment: Antibacterial susceptibility testing (MIC), P. aeruginosa; type: cell-based; details: strain ATCC 27853; for MIC: Pseudomonas aeruginosa, ATCC27853
Experimental: as §2

Hemolysis assay = type: cell-based; details: human
Experimental: Hemolytic activity against human erythrocytes taken from a healthy donor was measured as previously described. The hemolysis experiments were carried out in accordance with the guidelines of the United Arab Emirates University (UAEU) Research Ethics Review Board. All experimental protocols were approved by the Research Ethics Review Board of UAEU and informed consent was obtained from all donors.

E. coli PhoR (PhoR^E) [4] = molecular target: T2, E. coli PhoR (PhoR^E); experiment: Aggregation analysis by native-PAGE, PhoR^E; details: 2 mM (S5 and S6 5 mM), 10% DMSO
Experimental: (§3) E. coli PhoR and EnvZ, and S. aureus PhoR ([…], final concentration) were prepared in kinase buffer. […] DMSO in the assays was maintained to a final concentration 10% (v/v). After 30 min of incubation at room temperature Native polyacrylamide gel electrophoresis (Native-PAGE) loading buffer was added and samples loaded. Coomassie blue staining was used for protein visualization.

S. aureus PhoR (PhoR^S) [5] = molecular target: T1, S. aureus PhoR (PhoR^S); experiment: Aggregation analysis by native-PAGE, PhoR^S; details: 2 mM (S5 and S6 5 mM), 10% DMSO
Experimental: as §3

[6] = Solubility in kinase buffer; type: physicochemical; details: kinase buffer in the presence of 10% DMSO
[7] = ATCC reference strain 25293, read-out: MIC S. aureus 25293
[8] = DSM20231, strain DSM 20231, read-out: MIC S. aureus DSM 20231
[9] = MRSA clinical isolate 127/08, read-out: MIC S. aureus 127/08
[10] = MRSA clinical isolate 145/08, read-out: MIC S. aureus 145/08
[11] = MRSA clinical isolate 274/08, read-out: MIC S. aureus 274/08
[12] = MRSA, MRSA clinical isolate S908, read-out: MIC S. aureus S908
[13] = MRSA, MRSA clinical isolate T4/6, read-out: MIC S. aureus T4/6
[14] = MRSA, MRSA clinical isolate V4180, read-out: MIC S. aureus V4180
[15] = MRSA, summary over susceptible MRSA clinical isolates, read-out: MICs for MRSA strains
[16] = ATCC25276, strain ATCC 25276, read-out: MIC E. coli ATCC 25276
[17] = strain CFT 073, read-out: MIC E. coli CFT 073
[18] = MDR clinical isolate NM8, read-out: MIC A. baumannii NM8
[19] = MDR clinical isolate NM35, read-out: MIC A. baumannii NM35
[20] = MDR clinical isolate NM75, read-out: MIC A. baumannii NM75
[21] = MDR clinical isolate NM109, read-out: MIC A. baumannii NM109
[22] = MDR clinical isolate NM124, read-out: MIC A. baumannii NM124
[23] = clinical isolate B5/5, read-out: MIC S. maltophilia B5/5
[24] = clinical isolate B6/2, read-out: MIC S. maltophilia B6/2
[25] = clinical isolate B32/1, read-out: MIC S. maltophilia B32/1

Compound	inhibition at 2000 µM (S. aureus PhoR (PhoR^S) [1])	inhibition at 2000 µM (E. coli PhoR (PhoR^E) [2])	IC50 (E. coli PhoR (PhoR^E) [2])	MIC (Staphylococcus aureus; [7])	MBC (Staphylococcus aureus; DSM20231, strain DSM 20231)	MIC (Staphylococcus aureus; [8])	MIC (Staphylococcus aureus; [9])	MIC (Staphylococcus aureus; [10])	MIC (Staphylococcus aureus; [11])	MIC (Staphylococcus aureus; [12])	MIC (Staphylococcus aureus; [13])	MIC (Staphylococcus aureus; [14])	MIC (Staphylococcus aureus; [15])	MIC S. aureus DSM 20231 (Staphylococcus aureus; strain DSM 20231)	bacteriostatic or bactericidal for S. aureus DSM 20231 (Staphylococcus aureus; strain DSM 20231)	MIC (Escherichia coli; [16])	MIC (Escherichia coli; [17])	MIC (Streptococcus suis)	MIC (Streptococcus pneumoniae)	MIC (Acinetobacter baumannii; [18])	further results
CC[C@H](c1ccc(O)cc1)[C@@H](CC)c1ccc(F)cc1 [S1.13, 4-[(3S,4R)-4-(4-fluorophenyl)hexan-3-yl]phenol]	> 75%	> 75%	16 µM	8 µg/mL (≈ 29.4 µM)	33 µg/mL (≈ 121 µM)	8 µg/mL (≈ 29.4 µM)	16 µg/mL (≈ 58.7 µM)	8 µg/mL (≈ 29.4 µM)	16 µg/mL (≈ 58.7 µM)	16 µg/mL (≈ 58.7 µM)	8 µg/mL (≈ 29.4 µM)	8 µg/mL (≈ 29.4 µM)	8 to 16 µg/mL (≈ 29.4 to 58.7 µM)	8^¥ μg/ml	bactericidal	> 500 µg/mL	> 500 µg/mL	8 µg/mL (≈ 29.4 µM)	16 µg/mL (≈ 58.7 µM)	> 500 µg/mL	IC50 (S. aureus PhoR (PhoR^S) [1]; IC50 PhoR^S, autophosphorylation, one time point (30 sec), 10% DMSO): 212 µM; MIC (Staphylococcus aureus; MRSA, summary over strains, read-out: MICs for the S. aureus reference strains and the MRSA strains): 8 to 16 µg/mL (≈ 29.4 to 58.7 µM); MBC S. aureus DSM 20231 (Staphylococcus aureus; strain DSM 20231): 31 µg/mL (≈ 114 µM); MIC (Acinetobacter baumannii; [19]): > 500 µg/mL; MIC (Acinetobacter baumannii; [20]): > 500 µg/mL; MIC (Acinetobacter baumannii; [21]): > 500 µg/mL; MIC (Acinetobacter baumannii; [22]): > 500 µg/mL; MIC [3, 23]: > 500 µg/mL; MIC [3, 24]: > 500 µg/mL; MIC [3, 25]: > 500 µg/mL; MIC (Pseudomonas aeruginosa): > 500 µg/mL; MIC P. aeruginosa ATCC 27853 (Pseudomonas aeruginosa): >500 µg/mL; HC50 (Hemolysis assay): 277 µg/mL; HK aggregation, PhoR^E (E. coli PhoR (PhoR^E) [4]): do not cause HK aggregation; HK aggregation, PhoR^S (S. aureus PhoR (PhoR^S) [5]): do not cause HK aggregation; solubility in kinase buffer [6]: good solubility
CC(C)(C)c1ccc(O)c(CNc2ccccc2)c1 [S1.14, 4-tert-butyl-2-[(phenylamino)methyl]phenol]	> 75%	> 40%	> 2000 µM	125 µg/mL (≈ 490 µM)	500 µg/mL (≈ 1960 µM)	500 µg/mL (≈ 1960 µM)	250 µg/mL (≈ 979 µM)	250 µg/mL (≈ 979 µM)	250 µg/mL (≈ 979 µM)	250 µg/mL (≈ 979 µM)	250 µg/mL (≈ 979 µM)	250 µg/mL (≈ 979 µM)	250 µg/mL (≈ 979 µM)	500^¶ μg/ml	bactericidal	> 500 µg/mL	> 500 µg/mL	125 µg/mL (≈ 490 µM)	> 500 µg/mL	500 µg/mL (≈ 1960 µM)	MIC (Acinetobacter baumannii; [19]): 500 µg/mL (≈ 1960 µM); MIC (Acinetobacter baumannii; [20]): 500 µg/mL (≈ 1960 µM); MIC (Acinetobacter baumannii; [21]): 250 µg/mL (≈ 979 µM); MIC (Acinetobacter baumannii; [22]): 250 µg/mL (≈ 979 µM); MIC (Acinetobacter baumannii; summary over strains, read-out: MICs for A. baumannii strains): 250 to 500 µg/mL (≈ 979 to 1960 µM); MIC [3, 23]: 500 µg/mL (≈ 1960 µM); MIC [3, 24]: 500 µg/mL (≈ 1960 µM); MIC [3, 25]: 500 µg/mL (≈ 1960 µM); MIC ([3]; summary over strains, read-out: MICs for S. maltophilia strains): 250 to 500 µg/mL (≈ 979 to 1960 µM); MIC (Pseudomonas aeruginosa): > 500 µg/mL; MIC P. aeruginosa ATCC 27853 (Pseudomonas aeruginosa): >500 µg/mL; HC50 (Hemolysis assay): > 500 µg/mL; HK aggregation, PhoR^E (E. coli PhoR (PhoR^E) [4]): do not cause HK aggregation; HK aggregation, PhoR^S (S. aureus PhoR (PhoR^S) [5]): do not cause HK aggregation
